# Data published in PubChem BioAssay (NCI).
# Values joined by “and” are separate entries in the source; they are usually repeats but may differ in a detail not shown here. Equal entries are not always repeated.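 Exposure lasted 48 hours, with cells grown in 96-well plates and compounds tested at five concentrations. GI50: concentration for 50% inhibition of growth. TGI is the concentration that stops growth completely.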
# How the values were obtained:
# Experiment in all cases: growth of human tumour cells (NCI), 48 h
# U251 CNS = system: U251 CNS
# 786-0 renal = system: 786-0 renal
# SW-620 colon = system: SW-620 colon
# SNB-75 CNS = system: SNB-75 CNS
# DU-145 prostate = system: DU-145 prostate
# HT29 colon = system: HT29 colon
# SF-295 CNS = system: SF-295 CNS
# SNB-19 CNS = system: SNB-19 CNS
# IGROV1 ovarian = system: IGROV1 ovarian
# M14 melanoma = system: M14 melanoma
Structure (SMILES),GI50 (U251 CNS),TGI (U251 CNS),GI50 (786-0 renal),TGI (786-0 renal),GI50 (SW-620 colon),TGI (SW-620 colon),GI50 (SNB-75 CNS),TGI (SNB-75 CNS),GI50 (DU-145 prostate),TGI (DU-145 prostate),GI50 (HT29 colon),TGI (HT29 colon),GI50 (SF-295 CNS),TGI (SF-295 CNS),GI50 (SNB-19 CNS),TGI (SNB-19 CNS),GI50 (IGROV1 ovarian),TGI (IGROV1 ovarian),GI50 (M14 melanoma),TGI (M14 melanoma)
O=C(Cc1ccc(/C=C/C(=O)c2ncc[nH]2)cc1)Nc1ccc(F)cc1,1.2 µM,4.5 µM,1.37 µM,5.81 µM,1.43 µM,6.78 µM,11.1 µM,> 33.3 µM,1.19 µM,4.58 µM,1.15 µM,4.45 µM,4.74 µM,11.5 µM,1.58 µM,14.9 µM,2.66 µM,13.9 µM,5.98 µM,17.6 µM
CC(C)(CN1CCCCC1)C(=O)/C=C/c1ccc(/C=C/C(=O)C(C)(C)CN2CCCCC2)cc1,–,1.18 µM,–,2.79 µM,–,0.463 µM,–,1.82 µM,–,5.05 µM,–,0.514 µM,–,1.68 µM,–,3.15 µM,–,1.52 µM,–,3.26 µM
CC(N)C(Cc1ccc(Cl)cc1)c1ccc(Cl)cc1 (stereo not given),12.3 µM,25.9 µM,10.2 µM,24.3 µM,4.46 µM,16.9 µM,3.76 µM,18.3 µM,12.5 µM,25.7 µM,3.29 µM,13.6 µM,10.4 µM,23.6 µM,14.1 µM,29.5 µM,4.89 µM,18.7 µM,5.53 µM,18.9 µM
Cc1cccc(N(C)C(=O)[C@@H]2[C@H](O)CCN2c2nc(C)cc(C(F)(F)F)c2C#N)c1,28.8 µM,> 100 µM,21.6 µM,66.9 µM,37.8 µM,> 100 µM,31.4 µM,> 100 µM,25.1 µM,> 100 µM,15.6 µM,49.1 µM,20.3 µM,54.2 µM,31.1 µM,> 100 µM,26.5 µM,94.5 µM,16.3 µM,34.5 µM
CCN(CC)c1ccc(/C=N/NC(=O)CSc2nc3ccccc3c(=O)n2CCc2ccc(S(N)(=O)=O)cc2)c(O)c1,1.44 µM,> 100 µM,4.46 µM,> 100 µM,3.12 µM,> 100 µM,3.43 µM,> 100 µM,1.82 µM,> 100 µM,8.93 µM,> 100 µM,4.01 µM,> 100 µM,3.72 µM,> 100 µM,1.48 µM,> 100 µM,0.754 µM,7.2 µM
c1ccc([P+](CCSCCSCC[P+](c2ccccc2)(c2ccccc2)c2ccccc2)(c2ccccc2)c2ccccc2)cc1,–,> 100 µM,–,> 100 µM,–,> 100 µM,–,> 100 µM,–,> 100 µM,–,> 100 µM,–,> 100 µM,–,> 100 µM,–,> 100 µM,–,> 100 µM
COc1ccc2c(c1)/C(=C\c1c(-c3cc(OC)ccc3OC)nc3sc(C)cn13)C(=O)N2C,39.7 µM,> 100 µM,31.1 µM,> 100 µM,42.6 µM,> 100 µM,6.68 µM,45.9 µM,56.9 µM,> 100 µM,–,–,13.1 µM,35.8 µM,58.9 µM,> 100 µM,19.4 µM,> 100 µM,26.1 µM,71.4 µM
COc1ccc(/C=C/C(=O)c2cc(OC)c(OC)c(OC)c2)cc1OCC(=O)Nc1nc2ccc(OC(F)(F)F)cc2s1,0.703 µM,2.58 µM,2.26 µM,4.97 µM,1.08 µM,> 100 µM,0.34 µM,2.3 µM,1.56 µM,4.55 µM,3.66 µM,79.4 µM,2.21 µM,6.09 µM,1.58 µM,51.8 µM,2.54 µM,5.56 µM,1.72 µM,4.52 µM
N#Cc1cc(C#N)c(N)nc1N,–,> 100 µM,–,> 100 µM,–,> 100 µM,–,> 100 µM,–,> 100 µM,–,> 100 µM,–,> 100 µM,–,> 100 µM,–,> 100 µM,–,> 100 µM
Cc1nc([P+](c2ccccc2)(c2ccccc2)c2ccccc2)c(Sc2sc(-c3ccccc3)nc2[P+](c2ccccc2)(c2ccccc2)c2ccccc2)o1,0.344 µM,4.03 µM,2.34 µM,11.2 µM,0.637 µM,2.85 µM,1.11 µM,4.31 µM,1.22 µM,4.96 µM,0.861 µM,10.6 µM,2.24 µM,6.77 µM,1.6 µM,12.2 µM,1.4 µM,4.83 µM,1.21 µM,5.3 µM
O=C(Oc1cccc2cccnc12)c1cc2c(cc1Cl)SC(N(c1ccc(F)cc1)S(=O)(=O)c1ccc(Br)s1)=NS2(=O)=O,26 µM,95.6 µM,> 100 µM,> 100 µM,25.3 µM,> 100 µM,26.5 µM,93.5 µM,27.3 µM,> 100 µM,41 µM,> 100 µM,22.4 µM,69.7 µM,28.8 µM,> 100 µM,60.3 µM,> 100 µM,23.9 µM,> 100 µM
COc1cc(OC)c2c(c1)OC(c1ccccc1)CC2=O (stereo not given),–,> 10 µM,–,> 10 µM,–,> 10 µM,–,> 10 µM,–,> 10 µM,–,> 10 µM,–,> 10 µM,–,> 10 µM,–,> 10 µM,–,> 10 µM
COc1cc2c(cc1OC)[C@@H](Nc1ccc(C#N)cc1)C1COC(=O)[C@@H]1C2c1cc(OC)c(O)c(OC)c1 (stereo not given in full),0.0457 µM and 0.178 µM,–,–,2.76 µM,–,18.8 µM and > 100 µM,–,4 µM and 2.11 µM,–,> 100 µM,–,23.2 µM and > 100 µM,–,2 µM and 3.21 µM,–,95 µM,7.06 µM and 5.07 µM,95 µM and > 100 µM,0.515 µM and 0.342 µM,95 µM and > 100 µM
Nc1nccc(-c2c(-c3ccc(F)cc3)ncn2C2CCNCC2)n1,3.67 µM and 1.95 µM,> 25 µM,16 µM and 5.59 µM,> 25 µM,4.25 µM and 1.38 µM,> 25 µM,2.91 µM and 1.17 µM,> 23.4 µM and 12.7 µM,7.77 µM and 3.96 µM,> 25 µM,1.68 µM and 1.28 µM,> 25 µM,> 12.4 µM and 5.75 µM,> 25 µM,6.91 µM and 3.96 µM,> 25 µM,5.13 µM and 4.73 µM,> 25 µM,13.3 µM and 3.85 µM,> 25 µM
